The text below walks through data of ChEMBL document CHEMBL1130278, “Synthesis and structure-activity relationships of 3,7-dimethyl-1-propargylxanthine derivatives, A2A-selective adenosine receptor antagonists” (J Med Chem, 1997).

The target in assay [1] is T1, Adenosine receptor A1 (Rattus norvegicus, UniProt P25099).
T1 sequence (P25099 whole entry): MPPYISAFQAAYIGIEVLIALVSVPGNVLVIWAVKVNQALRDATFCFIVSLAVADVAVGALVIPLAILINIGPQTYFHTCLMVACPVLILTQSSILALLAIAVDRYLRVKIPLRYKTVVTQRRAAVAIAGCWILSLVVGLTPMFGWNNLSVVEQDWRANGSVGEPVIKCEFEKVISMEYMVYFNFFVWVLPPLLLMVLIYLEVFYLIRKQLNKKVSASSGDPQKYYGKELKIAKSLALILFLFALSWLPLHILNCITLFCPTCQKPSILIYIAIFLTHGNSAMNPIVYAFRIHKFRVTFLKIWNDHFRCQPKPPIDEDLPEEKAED
In words: Ability to inhibit binding of [3H]CHA to adenosine A1 receptor in rat brain cortical membranes. It is filed as cell membranes, Membrane.

Assay [2] has as its target T2, Adenosine receptor A2a (Rattus norvegicus, UniProt P30543).
Description: Ability to inhibit binding of [3H]-CGS- 21680 to adenosine A2A receptor in rat brain striatal membranes.
Assay [3] addresses T2, Adenosine receptor A2a. This is another data set of the same source.
Description: Ability to inhibit binding of [3H]NECA to Adenosine A2A receptor in rat brain striatal membranes
The target in assay [4] is T3, Adenosine receptor A3 (Rattus norvegicus, UniProt P28647).
T3 sequence (P28647 whole entry): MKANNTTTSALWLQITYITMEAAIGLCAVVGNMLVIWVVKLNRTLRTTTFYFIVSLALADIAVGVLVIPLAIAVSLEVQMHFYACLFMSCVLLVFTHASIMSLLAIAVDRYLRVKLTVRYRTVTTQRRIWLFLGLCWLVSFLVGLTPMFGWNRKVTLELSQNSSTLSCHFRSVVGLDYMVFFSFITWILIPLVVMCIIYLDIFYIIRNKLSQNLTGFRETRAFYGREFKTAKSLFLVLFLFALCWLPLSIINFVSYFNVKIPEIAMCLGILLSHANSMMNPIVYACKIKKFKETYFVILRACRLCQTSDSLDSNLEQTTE
Kind of assay: Inhibitory activity against rat adenosine A3 receptor; inactive up to 10 uM concentration; IA = Inactive.

The target of assay [5] is T4, Adenosine receptor A1 (Rattus norvegicus) (UniProt P25099).
T4 sequence (whole entry): T1 sequence (P25099 whole entry)
In words: Inhibition of [3H]CHA binding to Adenosine A1 receptor of rat brain cortical membranes. It is filed as cell membranes. As to conditions: Membrane, concentration not given here; call rule not given here.

Assay [6] has as its target T1, Adenosine receptor A1. Kind of assay: Ability to inhibit binding of [3H]R-PIA to Adenosine A1 receptor in rat brain cortical membranes. Type of assay: cell membranes, Membrane.
In a further assay the target is T5, Adenosine receptor A2b (Homo sapiens, UniProt P29275).
T5 sequence (P29275 whole entry): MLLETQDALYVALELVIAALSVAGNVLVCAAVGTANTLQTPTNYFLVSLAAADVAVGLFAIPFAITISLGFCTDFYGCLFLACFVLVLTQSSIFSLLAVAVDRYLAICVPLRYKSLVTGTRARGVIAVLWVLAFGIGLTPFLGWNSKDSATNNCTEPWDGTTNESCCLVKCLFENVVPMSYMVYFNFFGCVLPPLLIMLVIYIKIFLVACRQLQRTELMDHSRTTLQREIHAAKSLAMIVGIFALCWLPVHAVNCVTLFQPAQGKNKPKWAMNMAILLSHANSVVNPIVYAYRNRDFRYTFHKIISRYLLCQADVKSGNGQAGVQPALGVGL
In words: Binding affinity for human Adenosine A2B receptor at 10 uM; IA = Inactive.

The target in assay [7] is T6, Adenosine receptor A3 (Homo sapiens, UniProt P0DMS8).
T6 sequence (P0DMS8 whole entry): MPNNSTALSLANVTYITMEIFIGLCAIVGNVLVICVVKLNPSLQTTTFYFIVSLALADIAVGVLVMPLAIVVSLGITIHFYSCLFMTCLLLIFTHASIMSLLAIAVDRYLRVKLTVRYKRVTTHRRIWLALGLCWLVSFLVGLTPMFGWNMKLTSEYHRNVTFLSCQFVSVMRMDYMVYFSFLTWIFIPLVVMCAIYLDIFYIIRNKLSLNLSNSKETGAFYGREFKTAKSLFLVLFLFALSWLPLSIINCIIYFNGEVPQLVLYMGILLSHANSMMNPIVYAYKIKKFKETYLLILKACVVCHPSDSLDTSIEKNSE
In words: Binding affinity for human Adenosine A3 receptor at 10 uM; IA = Inactive.

T2 sequence (P30543 whole entry): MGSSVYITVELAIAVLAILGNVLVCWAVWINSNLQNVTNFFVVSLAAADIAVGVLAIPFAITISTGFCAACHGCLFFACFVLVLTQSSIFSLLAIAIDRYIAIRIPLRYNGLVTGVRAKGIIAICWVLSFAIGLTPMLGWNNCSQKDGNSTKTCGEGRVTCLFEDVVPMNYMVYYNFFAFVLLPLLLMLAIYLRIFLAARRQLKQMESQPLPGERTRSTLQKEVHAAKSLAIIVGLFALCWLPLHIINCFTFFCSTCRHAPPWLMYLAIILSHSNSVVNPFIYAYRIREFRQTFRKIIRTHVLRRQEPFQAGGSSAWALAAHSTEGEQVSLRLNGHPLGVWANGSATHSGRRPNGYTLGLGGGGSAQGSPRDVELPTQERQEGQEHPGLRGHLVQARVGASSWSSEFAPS

One may read the Ki as the equilibrium dissociation constant of an inhibitor or competing ligand from its target. Take `C#CCn1c(=O)c2c(ncn2C)n(C)c1=O`: the Ki at Adenosine receptor A1 [1] amounted to 12000 nM; on Adenosine receptor A2a [2], 8600 nM.

`Cn1c(=O)c2c(nc(-c3ccccc3)n2C)n(C)c1=O`: the Ki at Adenosine receptor A1 [1] turned out to be 33000 nM; on Adenosine receptor A2a [3], 25000 nM; at Adenosine receptor A2a [2], 19000 nM.

On to `C#CCn1c(=O)c2c(nc(-c3cccs3)n2C)n(C)c1=O`, for which the figures for the Ki at Adenosine receptor A1 [1] and at Adenosine receptor A2a [2] were 950 nM and 1800 nM, respectively.

For the compound `CCCn1c(=O)c2c(nc(/C=C/c3cccc(Cl)c3)n2C)n(C)c1=O`, the Ki amounted to 540 nM on Adenosine receptor A1 [1] and 31 nM at Adenosine receptor A2a [2].

For `C#CCn1c(=O)c2c(nc(/C=C/c3ccco3)n2C)n(C)c1=O`, the Ki on Adenosine receptor A1 [1] was 1900 nM; on Adenosine receptor A2a [2], 250 nM.

On to `C#CCn1c(=O)c2c(nc(/C=C/c3cccc(Cl)c3)n2C)n(CC(C)C)c1=O`, for which the results for the Ki on Adenosine receptor A1 [1] and at Adenosine receptor A2a [2] were 240 nM and 15 nM, respectively.

For `C#CCn1c(=O)c2c(nc(/C=C/c3cccs3)n2C)n(C)c1=O`, the Ki amounted to 4100 nM on Adenosine receptor A1 [1] and 340 nM at Adenosine receptor A2a [2].

In the case of `C#CCn1c(=O)c2[nH]c(/C=C/c3cccc(Cl)c3)nc2n(CC(C)C)c1=O`, the values for the Ki on Adenosine receptor A1 [1] and at Adenosine receptor A2a [2] were 83 nM and 46 nM, respectively.

Take `C=CCn1c(=O)c2c(nc(/C=C/c3ccccc3)n2C)n(C)c1=O`: the inhibition constant Ki on Adenosine receptor A1 [1] was 9200 nM; at Adenosine receptor A2a [2], 63 nM.

One may read the inhibition as the drop in the measured response relative to a control, in per cent. Read a high inhibition as a response far below the control. For `Cn1c(=O)c2c(nc(/C=C/c3cccc(Cl)c3)n2C)n(C)c1=O`, at Adenosine receptor A3 [4], the Ki result is on record as “Not Active”. The compound also displayed an inhibition in assay [5] of 17%.

In the case of `C#CCn1c(=O)c2c(nc(-c3ccccc3)n2C)n(C)c1=O`, the Ki on Adenosine receptor A1 [1] turned out to be 3200 nM; on Adenosine receptor A2a [3], 6400 nM; on Adenosine receptor A2a [2] it was 3300 nM.

As for `C#CCn1c(=O)c2[nH]c(/C=C/c3ccc4c(c3)OCO4)nc2n(C)c1=O`, the results for the Ki on Adenosine receptor A1 [1] and at Adenosine receptor A2a [2] were 840 nM and 170 nM, respectively.

Take `COc1ccc(/C=C/c2nc3c(c(=O)n(C)c(=O)n3C)n2C)cc1OC`: the Ki came out at 9600 nM at Adenosine receptor A1 [1] and 18 nM at Adenosine receptor A2a [2].

Take `CCCn1c(=O)c2c(nc(/C=C/c3ccc(OC)c(OC)c3)n2C)n(CCC)c1=O`: the affinity on Adenosine receptor A1 [1], expressed as Ki, was 260 nM.

In the case of `C#CCn1c(=O)c2c(nc(/C=C/c3cccc(Cl)c3)n2C)n(CCC)c1=O`, the inhibition constant Ki worked out at 102 nM at Adenosine receptor A1 [1] and 5.1 nM at Adenosine receptor A2a [2].

Consider `C#CCn1c(=O)[nH]c2nc(-c3cccs3)[nH]c2c1=O`, for which the Ki at Adenosine receptor A1 [1] was 180 nM; at Adenosine receptor A1 [6] it was 120 nM; at Adenosine receptor A2a [3] it was 5100 nM; on Adenosine receptor A2a [2], 560 nM.

For `C#CCn1c(=O)c2[nH]cnc2n(Cc2ccccc2)c1=O`, the results for the Ki on Adenosine receptor A1 [1] and at Adenosine receptor A2a [2] were 860 nM and 880 nM, respectively.

Consider `C#CCn1c(=O)[nH]c2[nH]c(/C=C/c3ccccc3)nc2c1=O`, for which the Ki at Adenosine receptor A1 [1] turned out to be 1300 nM; on Adenosine receptor A1 [6] it was 2100 nM; at Adenosine receptor A2a [3], 1900 nM; on Adenosine receptor A2a [2], 310 nM.

Turning to `C#CCn1c(=O)c2c(nc(/C=C/c3cccc(Cl)c3)n2C)n(Cc2ccccc2)c1=O`, the Ki on Adenosine receptor A1 [1] amounted to 2300 nM; on Adenosine receptor A2a [2], 68 nM.

Take `C#CCn1c(=O)c2c(nc(/C=C/c3ccccc3)n2C)n(C)c1=O`: the Ki stood at 1100 nM at Adenosine receptor A1 [1], 2700 nM on Adenosine receptor A1 [6], 140 nM on Adenosine receptor A2a [3] and 27 nM at Adenosine receptor A2a [2].

As to `C#CCn1c(=O)c2c(nc(/C=C/c3cccc(Cl)c3)n2CC#C)n(C)c1=O`, the Ki on Adenosine receptor A1 [1] was 200 nM; at Adenosine receptor A2a [2], 61 nM.

As for `C#CCn1c(=O)c2c(nc(/C=C/c3ccsc3)n2C)n(C)c1=O`, the inhibition constant Ki on Adenosine receptor A1 [1] was found to be 750 nM; at Adenosine receptor A2a [2], 24 nM.

Consider `C#CCn1c(=O)c2c(nc(/C=C/c3cccc(Cl)c3)n2C)n(C)c1=O`, for which the Ki on Adenosine receptor A1 [1] stood at 1300 nM; on Adenosine receptor A1 [6] it was 2500 nM; at Adenosine receptor A2a [3] it was 47 nM; on Adenosine receptor A2a [2] it was 13 nM.

`C#CCn1c(=O)c2[nH]cnc2n(C)c1=O` yielded a Ki on Adenosine receptor A2a [3] of 4800 nM.

For `C#CCn1c(=O)c2[nH]c(/C=C/c3cccc(Cl)c3)nc2n(C)c1=O`, the Ki turned out to be 250 nM at Adenosine receptor A1 [6] and 410 nM on Adenosine receptor A2a [3].

For the compound `C#CCn1c(-c2ccccc2)nc2c1c(=O)n(C)c(=O)n2CC(C)C`, the Ki came to 2800 nM at Adenosine receptor A1 [1] and 3500 nM on Adenosine receptor A2a [2].

On to `C#CCn1c(=O)c2c(nc(/C=C/c3ccc(OC)c(OC)c3)n2C)n(C)c1=O`, for which the Ki on Adenosine receptor A1 [1] was 2500 nM; on Adenosine receptor A2a [2] it was 15 nM.

Consider `C#CCn1c(=O)c2c(nc(C3CCCCC3)n2C)n(C)c1=O`, for which the Ki worked out at 2800 nM on Adenosine receptor A1 [1] and 4500 nM on Adenosine receptor A2a [2].

For `CC(C)Cn1c(=O)n(C)c(=O)c2c1nc(-c1ccccc1)n2C`, the Ki at Adenosine receptor A1 [1] stood at 4400 nM; on Adenosine receptor A2a [2], 14000 nM.

For the compound `C#CCn1c(=O)c2c(nc(/C=C/c3cccc(Br)c3)n2C)n(C)c1=O`, the Ki entry on Adenosine receptor A2b is “Not Active”; on Adenosine receptor A3 [7], “Not Active”; at Adenosine receptor A1 [1], 1200 nM; on Adenosine receptor A2a [2], 8.2 nM.

With `C#CCn1c(=O)c2c(nc(/C=C/c3ccc4c(c3)OCO4)n2C)n(C)c1=O`, the Ki came out at 1500 nM at Adenosine receptor A1 [1] and 35 nM on Adenosine receptor A2a [2].
